Legend:
Experiment in all cases: selective drug sensitivity score (sDSS, relative to normal bone marrow) (sDSS (score)); higher = more potent and effective on the cell line relative to normal bone marrow cells
Conditions in all cases: 72 h
[1] = system: NALM-16
[2] = system: NALL-1
[3] = system: HPB-ALL
[4] = system: COG-LL-402h
[5] = system: KASUMI-10
[6] = system: MN-60
[7] = system: REH
[8] = system: COG-LL-355h
[9] = system: KOPN-8
[10] = system: MOLT-14
[11] = system: COG-LL-319h
[12] = system: RPMI-8402
[13] = system: TMD5
[14] = system: 380
[15] = system: DND-41
[16] = system: P12-ICHIKAWA
[17] = system: MOLT-4
[18] = system: MHH-CALL-3
[19] = system: KASUMI-9
[20] = system: LC4-1
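Further: ALL cell lines in 384-well plates, five doses spanning 10,000-fold, each plate scaled between vehicle and 100 µmol/L benzalkonium chloride controls, sDSS an adapted area-under-curve metric.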

| SMILES | selective drug sensitivity score [1] | selective drug sensitivity score [2] | selective drug sensitivity score [3] | selective drug sensitivity score [4] | selective drug sensitivity score [5] | selective drug sensitivity score [6] | selective drug sensitivity score [7] | selective drug sensitivity score [8] | selective drug sensitivity score [9] | selective drug sensitivity score [10] | selective drug sensitivity score [11] | selective drug sensitivity score [12] | selective drug sensitivity score [13] | selective drug sensitivity score [14] | selective drug sensitivity score [15] | selective drug sensitivity score [16] | selective drug sensitivity score [17] | selective drug sensitivity score [18] | selective drug sensitivity score [19] | selective drug sensitivity score [20] |
| --- | --- | --- | --- | --- | --- | --- | --- | --- | --- | --- | --- | --- | --- | --- | --- | --- | --- | --- | --- | --- |
| CN(C)c1cc2c(cc1Sc1nc3c(N)nccc3n1CCNCC(C)(C)C)OCO2 [CUDC-305] (top concentration 10000 nM) | 1.12 | 0.42 | 4.42 | 3.92 | 3.52 | 1.42 | 3.32 | 2.42 | 4.32 | 5.12 | -2.48 | 1.42 | 1.82 | 3.22 | 5.92 | 2.82 | 6.02 | -11.7 | 0.22 | -0.98 |
| NC(=O)Nc1cc(-c2cccc(F)c2)sc1C(=O)N[C@H]1CCCNC1 [AZD7762] (top concentration 1000 nM) | 0.5 | -2.1 | -1.5 | 3.3 | 12.9 | -4.9 | -1.1 | -0.1 | 3.4 | 0.6 | 2.8 | 0 | -1.1 | 1 | 2.3 | -0.5 | -1.3 | 1.9 | 4.1 | -0.5 |
| COC(=O)C[C@](O)(CCCC(C)(C)O)C(=O)O[C@@H]1C(OC)=C[C@]23CCCN2CCc2cc4c(cc2[C@H]13)OCO4 [Omacetaxine] (top concentration 10000 nM) | -8.18 | -6.78 | -4.48 | 7.92 | 4.82 | -3.88 | -1.08 | 4.62 | 5.02 | 5.62 | 4.12 | 3.92 | -2.08 | 14.1 | -2.78 | 0.82 | 3.32 | 15.6 | 1.12 | 1.52 |
| CCNC(=O)c1noc(-c2cc(C(C)C)c(O)cc2O)c1-c1ccc(CN2CCOCC2)cc1 [Luminespib] (top concentration 1000 nM) | -2.9 | -5.8 | -2.5 | 4.1 | 4.4 | -4.6 | -1.5 | 6.5 | 6.7 | -0.6 | 3.1 | -3.8 | -6.3 | 6.3 | -2 | -5 | -1.1 | 8.3 | -3 | -1.4 |
| C[C@@H](Oc1cc(-n2cnc3ccc(CN4CCN(C)CC4)cc32)sc1C(N)=O)c1ccccc1C(F)(F)F (top concentration 10000 nM) | 17.4 | 5.82 | 11.6 | 16.2 | 11 | 3.72 | 21.8 | 5.62 | 19.9 | 24.8 | 14.7 | 28.8 | 11.8 | 25.5 | 13.2 | 21.9 | 22.8 | 8.92 | 26 | 22.6 |
| O=C(c1ccc(F)c(F)c1Nc1ccc(I)cc1F)N1CC(O)([C@@H]2CCCCN2)C1 [Cobimetinib] (top concentration 1000 nM) | -1.38 | -1.88 | -3.68 | -0.98 | -3.68 | -3.68 | -3.68 | 5.02 | 2.12 | 5.22 | -1.28 | -3.68 | 1.32 | 0.82 | 2.62 | -1.88 | -3.68 | 6.22 | -2.38 | -0.68 |
| Nc1nc2[nH]cc(CCc3ccc(C(=O)N[C@@H](CCC(=O)O)C(=O)O)cc3)c2c(=O)[nH]1 [Pemetrexed] (top concentration 10000 nM) | 7.38 | 12.2 | 9.98 | 7.98 | 19.1 | 11.6 | 22.1 | 4.28 | 30.2 | 20.2 | 27.3 | 24.8 | -0.72 | 22.6 | 18.6 | 26.1 | 21.5 | 13.5 | 18.6 | 21 |
| CC#CC(=O)N1CC[C@@H](n2c(=O)n(-c3ccc(Oc4ccccc4)cc3)c3c(N)ncnc32)C1 [Tirabrutinib] (top concentration 1000 nM) | 0 | 3.7 | 0 | 5.2 | 0 | 0 | 0 | 0 | 4.1 | 0 | 3.7 | 0 | 1 | 1.2 | 2.3 | 0 | 0 | 1.7 | 0 | 0.7 |
| CO[C@@H](C)Cn1c(=O)n(C)c2cnc3ccc(-c4cncc(C(C)(C)O)c4)cc3c21 (top concentration 2500 nM) | -0.52 | 0.48 | 2.18 | 5.48 | -1.02 | 3.88 | 6.78 | 3.88 | 13.9 | 2.08 | 5.48 | 2.78 | -1.22 | 10.3 | 3.18 | 1.38 | 3.38 | -1.42 | 8.68 | 2.68 |
